Results from PubChem BioAssay (NCI).
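Protocol summary: plate cells (96-well), add compound at 5 concentrations, incubate 48 h, interpolate endpoints linearly. GI50: concentration for 50% inhibition of growth. Definition used: TGI = concentration required for complete inhibition of growth.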

What was measured:
Experiment in all cases: DTP human tumour cell line panel, 48 h
SK-OV-3 ovarian = test system: SK-OV-3 ovarian
SNB-19 CNS = test system: SNB-19 CNS
NCI-H522 lung = test system: NCI-H522 lung
HCT-15 colon = test system: HCT-15 colon
SF-539 CNS = test system: SF-539 CNS
SN12C renal = test system: SN12C renal
MOLT-4 leukemia = test system: MOLT-4 leukemia
SF-268 CNS = test system: SF-268 CNS
ACHN renal = test system: ACHN renal
RPMI-8226 leukemia = test system: RPMI-8226 leukemia

Row | SMILES | TGI (SK-OV-3 ovarian) [µM] | TGI (SNB-19 CNS) [µM] | TGI (NCI-H522 lung) [µM] | TGI (HCT-15 colon) [µM] | TGI (SF-539 CNS) [µM] | TGI (SN12C renal) [µM] | TGI (MOLT-4 leukemia) [µM] | TGI (SF-268 CNS) [µM] | TGI (ACHN renal) [µM] | TGI (RPMI-8226 leukemia) [µM] | GI50 (RPMI-8226 leukemia) [µM] | GI50 (SK-OV-3 ovarian) [µM] | GI50 (SNB-19 CNS) [µM] | GI50 (NCI-H522 lung) [µM] | GI50 (HCT-15 colon) [µM] | GI50 (SF-539 CNS) [µM] | GI50 (SN12C renal) [µM] | GI50 (ACHN renal) [µM]
1 | Cc1[nH]c2ccccc2c1C1Cc2ccccc2N1C(=O)/C=C/C(=O)O (stereo not drawn) | > 100 | > 100 | > 100 | 33 | > 100 | > 100 | > 100 | > 100 | > 100 | – | – | – | – | – | – | – | – | –
2 | Cc1ccc(C)c(NC(=O)CC/C(=N\NC(=O)c2c(O)ccc3ccccc23)C(C)C(=O)c2ccc(O)cc2)c1 (stereo not drawn) | – | > 100 | 42.6 | > 100 | 80.5 | > 100 | > 100 | > 100 | 84.6 | > 100 | – | – | – | – | – | – | – | –
3 | O=CC1CCCc2ccccc21 (stereo not drawn) | > 100 | > 100 | > 100 | > 91.6 | – | > 100 | > 100 | > 31.6 | > 100 | > 65.8 | – | – | – | – | – | – | – | –
4 | COC(=O)CCC(NC(=S)N/N=C/c1ccco1)C(=O)OC (stereo not drawn) | > 100 | > 100 | > 100 | > 100 | > 100 | > 100 | – | > 100 | > 100 | – | – | – | – | – | – | – | – | –
5 | COc1ccc(C(=O)C(c2ccc(OC)cc2)C2(O)C(=O)Nc3c2ccc(Cl)c3C)cc1 (stereo not drawn) | > 100 | > 100 | > 100 | > 100 | – | > 100 | > 100 | > 100 | > 100 | > 100 | – | – | – | – | – | – | – | –
6 | COC(=O)C1=CC2C(=O)OC1CC2C#N (stereo not drawn) | > 100 | > 100 | > 100 | – | > 100 | > 100 | > 100 | > 100 | > 100 | > 100 | – | – | – | – | – | – | – | –
7 | COc1cc(C2C(Cl)C(=O)N2NC(=O)c2ccc(N)cc2)ccc1O (stereo not drawn) | > 100 | 78.9 | 35 | > 100 | 62.1 | > 100 | 60.3 | – | > 100 | > 100 | – | – | – | – | – | – | – | –
8 | N#CC(c1nc2ccccc2nc1Cl)S(=O)(=O)c1ccccc1 (stereo not drawn) | – | > 100 | > 100 | > 100 | > 100 | > 100 | > 100 | > 100 | > 100 | > 100 | – | – | – | – | – | – | – | –
9 | C[C@]12CC[C@H]3[C@@H](CC[C@]4(O)C[C@@H](O)CC[C@]34/C=N/O)[C@@]1(O)CC[C@@H]2C1=COC(=O)C1 | 0.403 | 2.05 | 0.371 | 0.45 | 0.221 | 1.24 | – | 0.331 | 0.67 | – | – | – | – | – | – | – | – | –
10 | COc1cc([C@H]2OC[C@H]3[C@@H]2CO[C@@H]3c2cc(OC)c3c(c2)OCO3)cc(OC)c1OC | > 100 | > 100 | > 100 | > 100 | > 100 | > 100 | – | > 100 | > 100 | > 100 | – | – | – | – | – | – | – | –
11 | CC1=C2C(=CC(C)(C)C2O)C(=O)C(C)(O)C12CC2 (stereo not drawn) | 0.175 | 0.17 | 0.017 | 0.151 | 0.0604 | 0.146 | 0.0245 | 0.0667 | 0.0373 | – | – | – | – | – | – | – | – | –
12 | [N-]=[N+]=NC(CI)c1cn([C@H]2C[C@H](O)[C@@H](CO)O2)c(=O)[nH]c1=O (stereo partly drawn) | > 100 | > 100 | > 100 | > 100 | > 100 | > 100 | > 100 | – | > 100 | > 100 | – | – | – | – | – | – | – | –
13 | COC(=O)C1=C(c2cc(OC)c(OC)c(OC)c2)OC(c2ccc(OC)c(OC)c2)C1 (stereo not drawn) | > 100 | – | – | > 100 | > 100 | > 100 | 51.2 | > 100 | > 100 | > 100 | – | – | – | – | – | – | – | –
14 | CCc1cccc(C)c1NC(=O)C(=O)Cc1nc2ccccc2s1 | > 100 | > 100 | > 100 | – | > 100 | > 100 | > 100 | > 100 | > 100 | – | – | – | – | – | – | – | – | –
15 | O=C(c1ccccc1)c1cccc(C(=O)c2ccccc2)c1 | > 100 | > 100 | > 100 | – | > 100 | > 100 | > 100 | > 100 | > 100 | > 100 | – | – | – | – | – | – | – | –
16 | C1=C2/CC[C@H](Sc3ccccc3)[C@H]2C2(CCCCC/1)OCCO2 | > 100 | > 100 | 39.6 | > 100 | > 100 | > 100 | – | > 100 | > 100 | 83.1 | – | – | – | – | – | – | – | –
17 | CC(C)c1cccc2sc(NC(=O)C(=O)C(C#N)c3cccc4ccccc34)nc12 (stereo not drawn) | > 100 | > 100 | > 100 | > 100 | > 100 | > 100 | > 100 | > 100 | > 100 | – | – | – | – | – | – | – | – | –
18 | O=C(COc1ccc(/C=C2\Oc3ccccc3C2=O)cc1)Nc1nc2c(s1)CCCC2 | > 100 | > 100 | 0.406 | > 100 | 1.4 | > 92 | – | – | > 100 | 1.12 | 0.261 | 50.2 | 46.9 | 0.165 | 25.1 | 0.622 | 4.64 | 17.4
19 | C/C(CC(=O)Nc1ccc(Cl)cc1)=N\NC(N)=S | > 100 | – | > 100 | – | > 100 | – | > 100 | > 100 | > 100 | > 100 | – | – | – | – | – | – | – | –
20 | COc1ccc(/C=N/N=C(\N)NO)c(OC)c1 | > 100 | > 100 | – | > 100 | > 100 | > 100 | > 100 | > 100 | > 100 | > 100 | – | – | – | – | – | – | – | –
21 | O=S1(=O)OCCOS(=O)(=O)C1Cc1ccccc1 | > 100 | > 100 | > 100 | – | 95.6 | > 100 | > 100 | > 100 | > 100 | 69.2 | – | – | – | – | – | – | – | –
22 | CN1c2ccccc2N(C)C23N(C)c4ccccc4N(C)C12N(C)c1ccccc1N3C (stereo not drawn) | – | > 100 | > 100 | > 100 | > 100 | > 100 | > 100 | > 100 | > 100 | – | – | – | – | – | – | – | – | –
23 | COC(=O)c1cc(Cl)ccc1NC(=O)c1ccc([N+](=O)[O-])cc1 | 42.5 | – | – | > 100 | 49.1 | – | > 100 | – | 26.5 | 69.4 | – | – | – | – | – | – | – | –
24 | CCOC(=O)C(=Cc1cccnc1C)C(=O)OCC | 25 | 23.6 | 11.7 | 19.4 | 33.3 | 16.2 | 46.9 | 31.3 | 29.5 | – | – | – | – | – | – | – | – | –
